Assay results taken from US10059689B2, “Substituted heteroaryl compounds and methods of use” (Sunshine Lake Pharma Co., Ltd., priority 2014, dated 2018).
pIC50: −log10 of the molar value.

What was measured:
[1] = Compound stability in human liver microsomes; format: in vitro ADME; conditions: for half-life: pH 7.4, 37° C., NADPH, read-out: Human T1/2; for CLint scaled: pH 7.4, in vivo CLint extrapolated
Procedure: (§1) Human or rat liver microsomes incubations were conducted in duplicate in polypropylene tubes. The typical incubation mixtures consisted of human or rat liver microsomes (0.5 mg protein/mL), compounds of interest (5 μM) and NADPH (1.0 mM) in a total volume of 200 μL potassium phosphate buffer (PBS, 100 mM, pH 7.4). Compounds were dissolved in DMSO and diluted with PBS such that the final concentration of DMSO was 0.05%. The enzymatic reactions were commenced with the addition of protein after a 3-min preincubation and incubated in a water bath open to the air at 37° C. Reactions were terminated at various time points (0, 5, 10, 15, 30, 60 min) by adding equal volume of ice-cold acetonitrile. The samples were stored at −80° C. until LC/MS/MS assays.
(§2) The concentrations of compounds in the incubation mixtures of human or rat liver microsomes were determined by a LC/MS/MS method. The ranges of the linearity in the concentration range were determined for each tested compounds.
(§3) A parallel incubation was performed using denatured microsomes as the negative control, and reactions were terminated at various time points (0, 15, 60 min) after incubation at 37° C.
(§4) Verapamil (1 μM) was selected as the positive control, and reactions were terminated at various time points (0, 5, 10, 15, 30, 60 min) after incubation at 37° C. Both positive and negative control samples were included in each assay to ensure the integrity of the microsomal incubation system.
(§5) In addition, the stability date of compound in human and rat liver microsomes was also obtained through the following method. Human or rat liver microsomes incubations were conducted in duplicate in polypropylene tubes. The typical incubation mixtures consisted of human or rat liver microsomes (0.5 mg protein/mL), compounds of interest (1.5 μM) and EDTA (1.0 mM) in a total volume of 30 μL potassium phosphate buffer (PBS, 100 mM, pH 7.4). Compounds were dissolved in DMSO and diluted with PBS such that the final concentration of DMSO was 0.2%. The enzymatic reactions were commenced with the addition of 15 μL NADPH (final concentration: 2 mM) after a 10-min preincubation and incubated in a water bath open to the air at 37° C. Reactions were terminated at various time points (0, 15, 30, 60 min) by adding 135 μL acetonitrile (contain IS). The samples were centrifuged at 4000 rpm for 10 min to remove protein, the supernatant was stored at −80° C. until LC/MS/MS assays. Ketanserin (1 μM) was selected as the positive control, and reactions were terminated at various time points (0, 15, 30, 60 min) after incubation at 37° C. Both positive and negative control samples were included in each assay to ensure the integrity of the microsomal incubation system.
(§6) The concentrations of compounds in human or rat liver microsome incubations were plotted as a percentage of the relevant zero time point control for each reaction. The in vivo CLint were extrapolated (ref.: Naritomi, Y.; Terashita, S.; Kimura, S.; Suzuki, A.; Kagayama, A.; and Sugiyama, Y.; Prediction of human hepatic clearance from in vivo animal experiments and in vitro metabolic studies with liver microsomes from animals and humans. Drug Metab. Dispos., 2001, 29: 1316-1324).

[2] = Compound stability in rat liver microsomes; format: in vitro ADME; conditions: for half-life: pH 7.4, 37° C., NADPH, read-out: Rat T1/2; for CLint scaled: pH 7.4, in vivo CLint extrapolated
Procedure: as §1, §2, §3, §4, §5, §6

[3] = Pharmacokinetics after intravenous and oral administration in rats; format: in vivo; conditions: for clearance (CL) / AUC(0-t) / half-life / Vd: iv dosing, 1 mg/kg; for F: oral bioavailability; for AUC(0-t) / half-life / Vd: rat, plasma; for Vd: read-out: Vss
Procedure: The LC/MS/MS system used in the analysis consists of an Agilent 1200 Series vacuum degasser, binary pump, well-plate autosampler, thermostatted column compartment, the Agilent G6430 Triple Quadrupole Mass Spectrometer with an electrosprayionization (ESI) source. Quantitative analysis was carried out using MRM mode. The parameters for MRM transitions are in the Table A.
An Agilent XDB-C18, 2.1×30 mm, 3.5 μM column was used for the analysis. 5 μL of the samples were injected. Analysis condition: The mobile phase was 0.1% formic acid in water (A) and 0.1% formic acid in methanol (B). The flow rate was 0.4 mL/min. And the gradient of Mobile phase was in the Table B.
Alternatively, an Agilent 6330 series LC/MS/MS spectrometer equipped with G1312A binary pumps, a G1367A autosampler and a G1314C UV detector were used in the analysis. An ESI source was used on the LC/MS/MS spectrometer. The analysis was done in positive ion mode as appropriate and the MRM transition for each analyte was optimized using standard solution. A Capcell MP-C18 100×4.6 mm I.D., […] column (Phenomenex, Torrance, Calif., USA) was used during the analysis. The mobile phase was 5 mM ammonia acetate, 0.1% MeOH in water (A): 5 mM ammonia acetate, 0.1% MeOH in acetonitrile (B) (70:30, v/v). The flow rate was 0.6 mL/min. Column was maintained at ambient temperature. 20 μL of the samples were injected.
The compounds disclosed herein are assessed in pharmacokinetic studies in mice, rats, dogs or monkeys. The compounds are administered as a water solution, 2% HPMC+1% TWEEN®80 in water solution, 5% DMSO+5% solutol in saline, 4% MC suspension or capsule. For the intravenous administration, the animals are generally given at 1 or 2 mg/kg dose. For the oral (p.o.) dosing, mice and rats are generally given 5 or 10 mg/kg dose, and dogs and monkeys are generally given 10 mg/kg dose. The blood samples (0.3 mL) are drawn at 0.25, 0.5, 1.0, 2.0, 3.0, 4.0, 6.0, 8.0, 12 and 24 h time points or 0.083, 0.25, 0.5, 1.0, 2.0, 4.0, 6.0, 8.0 and 24 h time points and centrifuged at 3,000 or 4000 rpm for 2 to 10 min. The plasma solutions are collected, and stored at −20° C. or −70° C. until analyzed by LC/MS/MS as described above.

JAK1 (h) = biological target: T1, JAK1 (h) (Homo sapiens, UniProt P23458); test: JAK1 (h) kinase assay; format: biochemical
T1 construct: purchased Millipore UK Ltd (contract assay service)
T1 sequence (P23458 whole entry): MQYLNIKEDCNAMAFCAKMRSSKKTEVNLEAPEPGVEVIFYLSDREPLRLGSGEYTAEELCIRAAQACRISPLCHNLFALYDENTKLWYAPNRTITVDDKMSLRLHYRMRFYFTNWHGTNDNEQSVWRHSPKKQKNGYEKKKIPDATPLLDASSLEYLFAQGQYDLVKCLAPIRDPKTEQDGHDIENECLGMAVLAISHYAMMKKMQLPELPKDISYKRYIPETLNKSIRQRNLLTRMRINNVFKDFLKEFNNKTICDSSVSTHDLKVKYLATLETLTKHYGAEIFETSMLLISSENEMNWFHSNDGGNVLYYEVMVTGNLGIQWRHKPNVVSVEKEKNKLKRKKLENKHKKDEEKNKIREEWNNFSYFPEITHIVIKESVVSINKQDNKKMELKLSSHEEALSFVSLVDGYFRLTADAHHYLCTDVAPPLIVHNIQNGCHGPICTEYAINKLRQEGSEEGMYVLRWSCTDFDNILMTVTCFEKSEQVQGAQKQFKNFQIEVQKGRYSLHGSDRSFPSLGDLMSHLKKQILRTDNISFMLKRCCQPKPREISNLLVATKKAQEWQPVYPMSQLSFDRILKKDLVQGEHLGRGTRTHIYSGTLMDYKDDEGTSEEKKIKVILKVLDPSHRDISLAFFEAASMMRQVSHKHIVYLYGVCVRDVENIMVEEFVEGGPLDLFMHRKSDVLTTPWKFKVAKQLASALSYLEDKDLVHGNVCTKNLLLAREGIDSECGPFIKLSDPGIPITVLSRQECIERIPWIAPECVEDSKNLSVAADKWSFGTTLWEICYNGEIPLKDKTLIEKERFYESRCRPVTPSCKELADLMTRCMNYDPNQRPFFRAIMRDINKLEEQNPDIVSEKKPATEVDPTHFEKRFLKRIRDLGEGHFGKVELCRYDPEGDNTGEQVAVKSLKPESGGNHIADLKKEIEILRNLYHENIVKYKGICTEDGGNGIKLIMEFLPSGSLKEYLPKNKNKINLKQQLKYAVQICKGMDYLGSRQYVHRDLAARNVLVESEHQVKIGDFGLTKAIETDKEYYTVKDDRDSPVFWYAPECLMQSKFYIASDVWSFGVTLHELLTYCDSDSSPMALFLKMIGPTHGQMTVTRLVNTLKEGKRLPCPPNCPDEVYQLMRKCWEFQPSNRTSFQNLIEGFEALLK
Procedure: (§7) The above assay procedure can be used to determine the IC50 for inhibition and/or the inhibition constant, Ki. The IC50 is defined as the concentration of compound required to reduce the enzyme activity by 50% under the condition of the assay. The IC50 value is estimated by preparing a 10 point curve using a ½ log dilution series (for example, a typical curve may be prepared using the following compound concentrations: 3 μM, 1 μM, 0.3 μM, 0.1 μM, 0.03 μM, 0.01 μM, 0.003 μM, 0.001 μM, 0.0003 μM and 0 μM).
(§8) JAK1 (h) is incubated with 20 mM Tris/HCl pH 7.5, 0.2 mM EDTA, 500 μM GEEPLYWSFPAKKK, 10 mM MgAcetate and [γ-^33P-ATP] (specific activity approx. 500 cpm/pmol, concentration as required). The reaction is initiated by the addition of the MgATP mix. After incubation for 40 minutes at room temperature, the reaction is stopped by the addition of 3% phosphoric acid solution. 10 μL of the reaction is then spotted onto a P30 filtermat and washed three times for 5 minutes in 75 mM phosphoric acid and once in methanol prior to drying and scintillation counting.
(§9) The kinase assays described herein were performed at Millipore UK Ltd, Dundee Technology Park, Dundee DD2 1SW, UK.

JAK2 (h) = biological target: T2, JAK2 (h) (Homo sapiens, UniProt O60674); test: JAK2 (h) kinase assay; format: biochemical
T2 construct: purchased Millipore UK Ltd (contract assay service)
T2 sequence (O60674 whole entry): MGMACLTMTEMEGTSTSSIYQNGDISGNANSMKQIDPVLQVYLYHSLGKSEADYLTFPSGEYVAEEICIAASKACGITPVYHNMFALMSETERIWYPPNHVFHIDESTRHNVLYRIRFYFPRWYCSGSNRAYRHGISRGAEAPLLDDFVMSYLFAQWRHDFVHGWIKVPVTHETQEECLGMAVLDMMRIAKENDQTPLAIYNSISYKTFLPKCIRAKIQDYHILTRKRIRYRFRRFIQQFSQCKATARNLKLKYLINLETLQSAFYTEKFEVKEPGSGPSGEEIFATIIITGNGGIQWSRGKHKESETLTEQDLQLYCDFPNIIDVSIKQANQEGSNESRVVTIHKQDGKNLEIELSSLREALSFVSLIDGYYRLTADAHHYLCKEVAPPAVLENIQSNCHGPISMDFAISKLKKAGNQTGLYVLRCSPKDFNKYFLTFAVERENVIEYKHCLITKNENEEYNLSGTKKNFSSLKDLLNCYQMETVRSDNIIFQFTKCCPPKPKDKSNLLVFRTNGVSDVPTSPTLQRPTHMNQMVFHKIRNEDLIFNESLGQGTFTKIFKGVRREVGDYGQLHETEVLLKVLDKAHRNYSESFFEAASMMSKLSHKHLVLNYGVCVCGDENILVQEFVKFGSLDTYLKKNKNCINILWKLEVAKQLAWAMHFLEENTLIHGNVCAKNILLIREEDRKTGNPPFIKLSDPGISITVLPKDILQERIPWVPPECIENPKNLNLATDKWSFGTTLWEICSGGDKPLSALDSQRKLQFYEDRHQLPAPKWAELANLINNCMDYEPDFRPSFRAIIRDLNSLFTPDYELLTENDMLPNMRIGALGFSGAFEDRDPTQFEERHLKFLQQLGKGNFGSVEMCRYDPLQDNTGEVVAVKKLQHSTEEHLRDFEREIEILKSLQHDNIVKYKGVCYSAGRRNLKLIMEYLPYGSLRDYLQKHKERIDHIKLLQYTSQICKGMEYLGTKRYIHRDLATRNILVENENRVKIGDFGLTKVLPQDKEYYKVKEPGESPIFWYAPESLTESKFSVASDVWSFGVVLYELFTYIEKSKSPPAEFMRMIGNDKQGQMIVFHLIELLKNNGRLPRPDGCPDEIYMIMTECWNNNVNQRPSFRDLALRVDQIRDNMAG
Procedure: as §7
as §8, with “JAK2 (h)” for “JAK1 (h)”, “with 8” for “with 20”, “mM MOPS” for “mM Tris/HCl”, “pH 7.0,” for “pH 7.5,”, “EDTA, 100” for “EDTA, 500”, “μM […],” for “μM GEEPLYWSFPAKKK,”
as §9

Row | Structure (SMILES) | half-life [1] [min] | CLint scaled [1] [mL/min/kg] | half-life [2] [min] | CLint scaled [2] [mL/min/kg] | clearance (CL) [3] [mL/min/kg] | F [3] [%] | AUC(0-t) [3] [ng·h/mL] | half-life [3] [min] | Vd [3] [L/kg] | pIC50 (JAK1 (h)) | pIC50 (JAK2 (h))
1 | CCC1CN(c2ccc(C#N)nn2)CCC1Nc1nc(Nc2cc(C)n(C)n2)ncc1Cl (centres unmarked) [Ex. 15, 6-(4-((5-chloro-2-((1,5-dimethyl-1H-pyrazol-3-yl)amino)pyrimidin-4-yl)amino)-3-ethylpiperidin-1-yl)pyridazine-3-carbonitrile] | 23.3 | 74.5 | 35 | 71 | 8.67 | 92.2 | 1930 | 45.6 | 0.48 | 9.22 | 9.22
2 | Cc1cc(Nc2ncc(Cl)c(NC3CCN(c4ccc(C#N)cn4)CC3)n2)nn1C [Ex. 2] | 36.3 | 47.9 | 17.7 | 140 |  |  |  |  |  | 9.22 | 8.52
3 | Cc1cnc(Nc2cnn(C)c2)nc1N(C)C1CCN(c2ccc(C#N)cn2)CC1 [Ex. 6, 6-(4-(methyl(5-methyl-2-((1-methyl-1H-pyrazol-4-yl)amino)pyrimidin-4-yl)amino)piperidin-1-yl)nicotinonitrile] | 15.6 | 111 | 4.3 | 577 | 20.2 | 22.2 | 1360 | 35.9 | 0.56 | 8.70 | 
4 | Cn1nc(Nc2ncc(Cl)c(NC3CCN(c4ccc(C#N)cn4)CC3)n2)cc1C(C)(C)O [Ex. 26, 6-(4-((5-chloro-2-((5-(2-hydroxypropan-2-yl)-1-methyl-1H-pyrazol-3-yl)amino)pyrimidin-4-yl)amino)piperidin-1-yl)nicotinonitrile] |  |  |  |  |  |  |  |  |  | 9.00 | 9.10

Results, then the compound that gave them:

Row | half-life [1] [min] | CLint scaled [1] [mL/min/kg] | half-life [2] [min] | CLint scaled [2] [mL/min/kg] | clearance (CL) [3] [mL/min/kg] | F [3] [%] | AUC(0-t) [3] [ng·h/mL] | half-life [3] [min] | Vd [3] [L/kg] | pIC50 (JAK1 (h)) | pIC50 (JAK2 (h)) | Structure (SMILES)
5 | 7.99 | 217 | 1.71 | 1450 | 61.2 | 107.1 | 273 | 29.4 | 1.19 | 9.00 | 6.76 | Cc1nn(C)cc1Nc1ncc(Cl)c(N(C)C2CCN(c3ccc(C#N)cn3)CC2)n1 [Ex. 14, 6-(4-((5-chloro-2-((1,3-dimethyl-1H-pyrazol-4-yl)amino)pyrimidin-4-yl) (methyl)amino)piperidin-1-yl)nicotinonitrile]
6 | 17.9 | 96.9 | 10.4 | 240 | 48.8 | 45.8 | 350 | 54 | 2.63 | 8.40 |  | Cc1cc(Nc2ncc(Cl)c(N(C)C3CCN(c4ccc(C#N)cn4)CC3)n2)nn1C [Ex. 9, 6-(4-((5-chloro-2-((1,5-dimethyl-1H-pyrazol-3-yl)amino)pyrimidin-4-yl) (methyl)amino)piperidin-1-yl)nicotinonitrile]
7 | 163 | 10.7 | 74.5 | 33.3 | 17.2 | 112.01 | 1060 | 56.4 | 0.94 | > 9.52 | 8.70 | Cc1cc(Nc2ncc(Cl)c(NC3CCN(c4ccc(C#N)cn4)CC3)n2)n[nH]1 [Ex. 3]
8 | 25.7 | 67.6 | 20.8 | 120 | 14 | 62.8 | 1220 | 28.2 | 0.33 | > 9.52 |  | Cn1cc2ccc(Nc3ncc(Cl)c(NC4CCN(c5ccc(C#N)nn5)CC4)n3)cc2n1 [Ex. 25]
